What is called IC50 is the point on the concentration scale where inhibition reaches its midpoint.

We go through 1 compound from paper PMC9030691, “Toxicokinetics of β-Amanitin in Mice and In Vitro Drug–Drug Interaction Potential” (Pharmaceutics, 2022).

Where two headings read alike, the source gives them in different places.

The target of data set [1] is T1, CYP3A4 (Homo sapiens, UniProt P08684).
T1 construct: from tissue; host or cells: ultrapooled human liver microsomes
The data set can be described thus: CYP3A4 inhibition in human liver microsomes. In kind it is in vitro ADME. Particulars: ultrapooled human liver microsomes 0.2 mg/mL, 2.5 μM midazolam, β-amanitin 0.1–100 μM, pH 7.4, 37 °C, 15 min, LC-MS/MS, n = 3, read-out: IC50, CYP3A4 midazolam 1′-hydroxylase. Here is the method: (§1) β-amanitin inhibition (IC50 values) of CYP1A2, CYP2A6, CYP2B6, CYP2C8, CYP2C9, CYP2C19, CYP2D6, and CYP3A4 enzyme activities in HLMs were evaluated using LC-MS/MS and CYP substrates as previously described. Each incubation mixture was made up to a volume of 100 μL including HLMs (0.2 mg/mL), 50 mM potassium phosphate buffer (pH 7.4), 1.0 mM NADPH, 10 mM magnesium chloride, various concentrations of β-amanitin (0.1–100 μM), a cocktail of seven CYP probe substrates (50 μM phenacetin for CYP1A2, 2.5 μM coumarin for CYP2A6, 2 μM amodiaquine for CYP2C8, 10 μM diclofenac for CYP2C9, 100 μM [S]-mephenytoin for CYP2C19, 5 μM bufuralol for CYP2D6, and 2.5 μM midazolam for CYP3A4 in acetonitrile), or 50 μM bupropion for CYP2B6. The reactions were initiated with NADPH followed by incubation in a shaking water bath at 37 °C for 15 min with or without 30 min preincubation with NADPH. Reactions were stopped with 50 μL of ice-cold methanol containing ^13C2, ^15N-acetaminophen and d9-1′-hydroxybufuralol (ISs). Incubation mixtures were centrifuged at 13,000× g for 8 min at 4 °C. An aliquot (5 μL) of the supernatant from the reaction mixture was analyzed by the previous LC-MS/MS method.
Background: Liver microsomes are vesicles of endoplasmic reticulum, rich in cytochrome P450 enzymes.

Data set [2] deals with MATE2-K (Homo sapiens, UniProt Q86VL8). The data set can be described thus: MATE2-K transport inhibition in HEK293-MATE2-K cells. Conditions: 0.1 μM probe substrate, HBSS pH 7.4, β-amanitin 0.01–250 μM (methods), n = 3, read-out: IC50, MATE2-K-mediated [14C]metformin uptake. The data set is classed as in vitro ADME. Further details: host or cells: HEK293 (TransportoCells). Here is the method: β-amanitin inhibition (IC50 values) of OCT1, OCT2, MATE2-K, OAT1, OAT3, Na^+/taurocholate co-transporting polypeptide (NTCP), OATP1B1, OATP1B3, P-glycoprotein (P-gp), and breast-cancer-resistant protein (BCRP) transport activities were assessed in HEK293 cells overexpressing individual transporters (TransportoCells™, Corning), LLC-PK1-P-gp (Corning), or LLC-PK1-BCRP (obtained from Dr. A.H. Schinkel, Netherlands Cancer Institute; Amsterdam, The Netherlands), as previously reported. Each incubation mixture was prepared to a final volume of 100 μL HBSS (pH 7.4) containing 0.1 μM probe substrates ([^3H]methyl-4-phenylpyridinium for OCT1 and OCT2, [^14C]metformin for MATE2-K, [^3H]p-aminohippuric acid for OAT1, [^3H]estrone-3-sulfate for OAT3, OATP1B1 and BCRP, [^3H]taurocholate for NTCP, [^3H]17-β-D-estradiol-glucuronide for OATP1B3, [^3H]digoxin for P-gp) and various concentrations of β-amanitin (0.01–250 μM), as previously described.

In data set [3] the target is T2, CYP2C9 (Homo sapiens, UniProt P11712).
T2 construct: from tissue; host or cells: ultrapooled human liver microsomes
The experiment in a line: CYP2C9 inhibition in human liver microsomes. In kind it is in vitro ADME. Particulars: ultrapooled human liver microsomes 0.2 mg/mL, 10 μM diclofenac, β-amanitin 0.1–100 μM, pH 7.4, 37 °C, 15 min, LC-MS/MS, n = 3, read-out: IC50, CYP2C9 diclofenac 4′-hydroxylase. The method, then: as §1

Data set [4] can be described thus: Urinary and fecal excretion in mice. Particulars: male mice, LC-HRMS, mean ± SD; for dose excreted: ICR, mouse. The data set is classed as in vivo, male ICR mice. Here is the method: β-amanitin in water was administered by iv bolus injection into the tail vein at 0.8 mg/kg dose (n = 4) and by oral gavage at 10 mg/kg dose (n = 3) to male mice. Mice were returned to metabolic cages, and urine and feces samples were collected individually at 0–6, 6–12, 12–24, 24–36, and 36–48 h. Urine and feces samples were stored at −80 °C until the analysis.
Each tissue and feces sample was homogenized in water (1:3, w/v). In total, 50 μL aliquots of urine, tissue homogenates, or feces homogenates were mixed with 150 μL of 4′-hydroxydiclofenac solution (IS, 5 ng/mL in methanol). The other steps were as described for plasma sample preparation.

[5] abbreviates: with 30 min NADPH preincubation.

T2 sequence (P11712 whole entry): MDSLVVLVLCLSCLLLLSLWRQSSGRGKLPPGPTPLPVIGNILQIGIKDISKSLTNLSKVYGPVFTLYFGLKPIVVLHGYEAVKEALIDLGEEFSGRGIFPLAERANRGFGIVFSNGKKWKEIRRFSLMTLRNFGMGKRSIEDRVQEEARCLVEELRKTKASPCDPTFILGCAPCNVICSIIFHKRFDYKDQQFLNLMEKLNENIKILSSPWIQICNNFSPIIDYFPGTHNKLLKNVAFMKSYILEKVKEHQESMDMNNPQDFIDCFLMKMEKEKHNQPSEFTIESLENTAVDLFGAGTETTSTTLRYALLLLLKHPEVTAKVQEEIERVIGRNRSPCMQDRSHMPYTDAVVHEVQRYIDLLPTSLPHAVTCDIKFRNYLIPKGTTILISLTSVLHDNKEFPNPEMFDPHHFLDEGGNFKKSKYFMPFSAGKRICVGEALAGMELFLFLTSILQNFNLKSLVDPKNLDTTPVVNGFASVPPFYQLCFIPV
T1 sequence (P08684 whole entry): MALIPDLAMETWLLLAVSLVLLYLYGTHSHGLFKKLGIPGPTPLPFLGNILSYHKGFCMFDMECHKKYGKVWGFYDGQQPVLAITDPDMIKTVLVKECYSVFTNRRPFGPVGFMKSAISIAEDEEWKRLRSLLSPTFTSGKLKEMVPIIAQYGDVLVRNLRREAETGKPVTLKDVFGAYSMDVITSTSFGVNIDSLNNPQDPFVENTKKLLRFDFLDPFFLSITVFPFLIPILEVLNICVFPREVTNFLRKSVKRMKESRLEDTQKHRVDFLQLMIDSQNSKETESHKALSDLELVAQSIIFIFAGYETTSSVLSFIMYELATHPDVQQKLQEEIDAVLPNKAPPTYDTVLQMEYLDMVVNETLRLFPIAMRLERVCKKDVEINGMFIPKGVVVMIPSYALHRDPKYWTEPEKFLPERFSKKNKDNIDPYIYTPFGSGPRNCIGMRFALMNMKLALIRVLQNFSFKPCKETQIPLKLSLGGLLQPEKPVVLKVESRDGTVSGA
Chain of MATE2-K (Q86VL8 1-566 isoform Q86VL8-3): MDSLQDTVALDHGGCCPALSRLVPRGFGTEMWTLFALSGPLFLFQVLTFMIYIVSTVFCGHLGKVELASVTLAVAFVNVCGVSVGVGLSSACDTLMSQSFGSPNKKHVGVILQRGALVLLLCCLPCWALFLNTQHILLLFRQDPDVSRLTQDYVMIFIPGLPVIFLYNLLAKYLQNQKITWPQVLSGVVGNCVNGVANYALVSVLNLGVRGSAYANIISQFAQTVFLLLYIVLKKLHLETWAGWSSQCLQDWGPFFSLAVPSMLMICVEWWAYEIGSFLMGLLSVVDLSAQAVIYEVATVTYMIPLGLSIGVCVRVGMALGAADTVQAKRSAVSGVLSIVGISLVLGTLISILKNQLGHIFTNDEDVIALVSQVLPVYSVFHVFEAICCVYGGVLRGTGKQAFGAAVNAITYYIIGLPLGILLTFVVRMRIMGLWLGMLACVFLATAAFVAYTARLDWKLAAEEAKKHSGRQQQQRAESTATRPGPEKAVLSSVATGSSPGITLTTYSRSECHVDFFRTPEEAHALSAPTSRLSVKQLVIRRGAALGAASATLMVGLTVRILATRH

For `CC[C@H](C)[C@@H]1NC(=O)CNC(=O)[C@@H]2Cc3c([nH]c4cc(O)ccc34)[S@+]([O-])C[C@H](NC(=O)CNC1=O)C(=O)N[C@@H](CC(=O)O)C(=O)N1C[C@H](O)C[C@H]1C(=O)N[C@@H]([C@@H](C)[C@@H](O)CO)C(=O)N2` [β-amanitin], the IC50 was > 100 µM in data set [1] (setting [5]); > 100 µM in data set [1] (without NADPH preincubation); 2.1 µM in data set [2]; > 100 µM in data set [3] (setting [5]); > 100 µM in data set [3] (without NADPH preincubation). For the same compound, the dose excreted in data set [4] (iv bolus 0.8 mg/kg, metabolic cages, urine 0–48 h, n = 4, read-out: Total urinary recovery (parent form) after 48 h) was 52.3 ± 19.8%; in data set [4] (oral gavage 10 mg/kg, feces 0–48 h, n = 3, read-out: Cumulative fecal excretion for 48 h), 72.4 ± 24.7%; in data set [4] (oral gavage 10 mg/kg, urine 0–48 h, n = 3, read-out: Cumulative urinary excretion for 48 h) it was 2.4 ± 1.2%. For the same compound, the “Total fecal recovery over 48 h” value in data set [4] (iv bolus 0.8 mg/kg, feces 0–48 h, n = 4) was 7.6% ± 1.2. The “Urinary recovery within 6 h” value in data set [4] (iv bolus 0.8 mg/kg, urine 0–6 h, n = 4) is recorded as 40.9% ± 27.6.
